The record followed here is patent publication US20250114460A1, “NOVEL PLK1 DEGRADATION INDUCING COMPOUND” (UPPTHERA, INC., priority 2021, published 2025).

What is called IC50 is the concentration that inhibits the measured activity by half.

Some results are limits rather than exact numbers.

What all share (assay type): cell-based
In one assay the target is T1, PLK1 (Homo sapiens, UniProt P53350).
T1 construct: endogenous in cells; host or cells: HeLa LgBit (Plk1-HiBit KI): HeLa stably expressing LgBit, with a CRISPR/Cas9 knock-in of HiBit at the endogenous PLK1 locus
T1 sequence (P53350 whole entry): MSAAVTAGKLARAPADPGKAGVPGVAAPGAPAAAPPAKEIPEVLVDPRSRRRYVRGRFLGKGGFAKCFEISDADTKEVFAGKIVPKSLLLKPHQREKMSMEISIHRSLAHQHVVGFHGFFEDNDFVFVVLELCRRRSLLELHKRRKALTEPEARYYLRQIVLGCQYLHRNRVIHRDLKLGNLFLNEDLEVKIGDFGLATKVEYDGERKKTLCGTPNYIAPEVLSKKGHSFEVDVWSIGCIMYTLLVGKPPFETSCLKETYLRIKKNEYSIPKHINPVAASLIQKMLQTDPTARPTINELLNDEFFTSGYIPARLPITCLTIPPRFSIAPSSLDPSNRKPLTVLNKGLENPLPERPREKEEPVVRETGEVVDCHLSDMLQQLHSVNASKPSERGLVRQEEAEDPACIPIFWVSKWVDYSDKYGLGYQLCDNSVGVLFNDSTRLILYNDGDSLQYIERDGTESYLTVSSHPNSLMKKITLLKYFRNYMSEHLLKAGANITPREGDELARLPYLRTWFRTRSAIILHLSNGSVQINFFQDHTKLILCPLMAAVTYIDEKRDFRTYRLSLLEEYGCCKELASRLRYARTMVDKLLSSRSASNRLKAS
In words: Luciferase assay for PLK1 in HeLa LgBit (Plk1-HiBit KI) cell line. The conditions noted are these: 300 nM compound, luminescence after 9 hours. In short, it runs like this: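 Luminescence, followed in real time after adding compound at 300 nM and Endurazine substrate, is reported relative to DMSO-treated wells. Cells are a HeLa LgBit line with a Plk1-HiBit knock-in, synchronized by 2 mM thymidine for 24 h, released, and cultured 18 h before treatment.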

The subject of another assay is NCI-H526 cell line. The experiment in a line: Cell viability assay for H526 cell (EZ-Cytox). The following applies: Homo sapiens, NCI-H526, 120 h; H526 cells, 5 days, 3000 nM to 0.46 nM. In short, it runs like this:
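Read-out was EZ-Cytox colorimetric absorbance at 450 nm, taken after brief plate shaking, with IC50 derived. Before reading, H526 cells had been cultured with test compound for 5 days.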

In another assay the test system is MRC-5 cell line. The experiment in a line: Cell viability assay for MRC-5 cell line (EZ-Cytox). The following applies: Homo sapiens, MRC5, 120 h; MRC-5 normal cell line, 5 days, 10000 nM to 1.52 nM; N.D. = no cytotoxicity until 10 μM; read-out: Activity: IC50 value of Exemplary Compound to MRC-5 cell line. As to the method:
4. Cell Viability Assay for MRC-5 Cell Line
(1) Culture of MRC-5 Cell Line
Passage of cultured cells was maintained within P15.
(2) Treatment of Compounds of the Present Invention
Then, it was cultured in 37° C.
(3) Cytotoxicity Experiment
CO2 incubator for 4 hours.

In the case of `COc1cc(C(=O)NCC2CCN(CCC3CCN(c4cccc5c4C(=O)N(C4CCC(=O)NC4=O)C5=O)C3)CC2)ccc1Nc1ncc2c(n1)N(C1CCCC1)CC(F)(F)C(=O)N2C` (stereo not drawn) [Compound 50, 4-((9-cyclopentyl-7,7-difluoro-5-methyl-6-oxo-6,7,8,9-tetrahydro-5H-pyrimido[4,5-b][1,4]diazepin-2-yl)amino)-N-((1-(2-(1-(2-(2,6-dioxopiperidin-3-yl)-1,3-dioxoisoindolin-4-yl)pyrrolidin-3-yl)ethyl)piperidin-4-yl)methyl)-3-methoxybenzamide], at PLK1, the “Activity: ratio of the luminescense value of each Exemplary Compound treatment group to DMSO treatment group” value (“Activity: ratio” for short) is “++ (++<0.6)”. The IC50 is under 30 nM with NCI-H526 cell line and 11.3 µM in the assay on MRC-5 cell line.
On to `COc1cc(C(=O)NN2CC(CN3CCN(c4cccc5c4C(=O)N(C4CCC(=O)NC4=O)C5=O)CC3)C2)ccc1Nc1ncc2c(n1)N(C(C)C)CC(F)(F)C(=O)N2C` (stereo not drawn) [Compound 161, 4-((7,7-difluoro-9-isopropyl-5-methyl-6-oxo-6,7,8,9-tetrahydro-5H-pyrimido[4,5-b][1,4]diazepin-2-yl)amino)-N-(3-((4-(2-(2,6-dioxopiperidin-3-yl)-1,3-dioxoisoindolin-4-yl)piperazin-1-yl)methyl)azetidin-1-yl)-3-methoxybenzamide], for which the “Activity: ratio” value on PLK1 is reported as “++ (++<0.6)”. The IC50 was under 30 nM in the assay on NCI-H526 cell line and over 10 µM in the assay on MRC-5 cell line.
In the case of `COc1cc(C(=O)NC2CCN(C(=O)CCCOc3cccc4c3C(=O)N(C3CCC(=O)NC3=O)C4=O)CC2)c(F)cc1Nc1ncc2c(n1)N(C1CCCC1)CC(F)(F)C(=O)N2C` (stereo not drawn) [Compound 30, 4-((9-cyclopentyl-7,7-difluoro-5-methyl-6-oxo-6,7,8,9-tetrahydro-5H-pyrimido[4,5-b][1,4]diazepin-2-yl)amino)-N-(1-(4-((2-(2,6-dioxopiperidin-3-yl)-1,3-dioxoisoindolin-4-yl)oxy)butanoyl)piperidin-4-yl)-2-fluoro-5-methoxybenzamide], the “Activity: ratio” value on PLK1 is “++ (++<0.6)”. In addition, the IC50 in the assay on NCI-H526 cell line was under 100 nM; in the assay on MRC-5 cell line, over 10 µM.
On to `COc1cc(C(=O)NC2CCN(CCOCCOCCNc3cccc4c3CN(C3CCC(=O)NC3=O)C4=O)CC2)ccc1Nc1ncc2c(n1)N(C1CCCC1)CC(F)(F)C(=O)N2C` (stereo not drawn) [Compound 18, 4-((9-cyclopentyl-7,7-difluoro-5-methyl-6-oxo-6,7,8,9-tetrahydro-5H-pyrimido[4,5-b][1,4]diazepin-2-yl)amino)-N-(1-(2-(2-(2-((2-(2,6-dioxopiperidin-3-yl)-1-oxoisoindolin-4-yl)amino)ethoxy)ethoxy)ethyl)piperidin-4-yl)-3-methoxybenzamide], for which the “Activity: ratio” value on PLK1 is “++ (++<0.6)”. Moreover, the IC50 is under 30 nM in the assay with NCI-H526 cell line and over 10 µM in the assay with MRC-5 cell line.
On to `COc1cc(C(=O)NN2CCN(C3CCN(c4cccc5c4C(=O)N(C4CCC(=O)NC4=O)C5=O)C3)CC2)ccc1Nc1ncc2c(n1)N(C1CCCC1)CC(F)(F)C(=O)N2C` (stereo not drawn) [Compound 51, 4-((9-cyclopentyl-7,7-difluoro-5-methyl-6-oxo-6,7,8,9-tetrahydro-5H-pyrimido[4,5-b][1,4]diazepin-2-yl)amino)-N-(4-(1-(2-(2,6-dioxopiperidin-3-yl)-1,3-dioxoisoindolin-4-yl)pyrrolidin-3-yl)piperazin-1-yl)-3-methoxybenzamide], for which the “Activity: ratio” value on PLK1 was “++ (++<0.6)”. Besides, the IC50 was under 30 nM with NCI-H526 cell line and over 10 µM in the assay with MRC-5 cell line.
In the case of `COc1cc(C(=O)N[C@H]2CC[C@H](N(C)CCN3CCN(c4ccc5c(c4)C(=O)N(C4CCC(=O)NC4=O)C5=O)CC3)CC2)ccc1Nc1ncc2c(n1)N(C(C)C)CC(F)(F)C(=O)N2C` (stereo partly drawn) [Compound 156, 4-((7,7-difluoro-9-isopropyl-5-methyl-6-oxo-6,7,8,9-tetrahydro-5H-pyrimido[4,5-b][1,4]diazepin-2-yl)amino)-N-((1r,4r)-4-((2-(4-(2-(2,6-dioxopiperidin-3-yl)-1,3-dioxoisoindolin-5-yl)piperazin-1-yl)ethyl)(methyl)amino)cyclohexyl)-3-methoxybenzamide], the “Activity: ratio” value at PLK1 was “++ (++<0.6)”. Further, the IC50 is under 50 nM in the assay on NCI-H526 cell line and over 10 µM in the assay on MRC-5 cell line.
Turning to `COc1cc(C(=O)NC2CCN(C(=O)CCN3CCN(c4cccc5c4C(=O)N(C4CCC(=O)NC4=O)C5=O)CC3)CC2)ccc1Nc1ncc2c(n1)N(C(C)C)CC(F)(F)C(=O)N2C` (stereo not drawn) [Compound 66, 4 4-((7,7-difluoro-9-isopropyl-5-methyl-6-oxo-6,7,8,9-tetrahydro-5H-pyrimido[4,5-b][1,4]diazepin-2-yl)amino)-N-(1-(3-(4-(2-(2,6-dioxopiperidin-3-yl)-1,3-dioxoisoindolin-4-yl)piperazin-1-yl)propanoyl)piperidin-4-yl)-3-methoxybenzamide], the “Activity: ratio” value at PLK1 is recorded as “+++ (+++: <0.3)”. Besides, the IC50 with NCI-H526 cell line was under 50 nM; in the assay with MRC-5 cell line, over 10 µM.
For `COc1cc(C(=O)N[C@H]2CC[C@H](N(C)CCCOc3cccc4c3C(=O)N(C3CCC(=O)NC3=O)C4=O)CC2)ccc1Nc1ncc2c(n1)N(C1CCCC1)CC(F)(F)C(=O)N2C` (stereo partly drawn) [Compound 15, 4-((9-cyclopentyl-7,7-difluoro-5-methyl-6-oxo-6,7,8,9-tetrahydro-5H-pyrimido[4,5-b][1,4]diazepin-2-yl)amino)-N-((1r,4r)-4-((3-((2-(2,6-dioxopiperidin-3-yl)-1,3-dioxoisoindolin-4-yl)oxy)propyl)(methyl)amino)cyclohexyl)-3-methoxybenzamide] the same measures were “++ (++<0.6)”, under 50 nM and 16.7 µM.
As to `COc1cc(C(=O)N2CCN(CCN3CCN(c4ccc5c(c4)C(=O)N(C4CCC(=O)NC4=O)C5=O)CC3)CC2)ccc1Nc1ncc2c(n1)N(C1CCCC1)CC(F)(F)C(=O)N2C` (stereo not drawn) [Compound 89, 5-(4-(2-(4-(4-((9-cyclopentyl-7,7-difluoro-5-methyl-6-oxo-6,7,8,9-tetrahydro-5H-pyrimido[4,5-b][1,4]diazepin-2-yl)amino)-3-methoxybenzoyl)piperazin-1-yl)ethyl)piperazin-1-yl)-2-(2,6-dioxopiperidin-3-yl)isoindoline-1,3-dione], the “Activity: ratio” value at PLK1 is given as “++ (++<0.6)”. Also, the IC50 is under 400 nM in the assay on NCI-H526 cell line and over 10 µM in the assay on MRC-5 cell line.
On to `COc1cc(C(=O)NN2CCC(N3CC4(CCN(c5cccc6c5C(=O)N(C5CCC(=O)NC5=O)C6=O)CC4)C3)CC2)ccc1Nc1ncc2c(n1)N(C(C)C)CC(F)(F)C(=O)N2C` (stereo not drawn) [Compound 213, 4-((7,7-difluoro-9-isopropyl-5-methyl-6-oxo-6,7,8,9-tetrahydro-5H-pyrimido[4,5-b][1,4]diazepin-2-yl)amino)-N-(4-(7-(2-(2,6-dioxopiperidin-3-yl)-1,3-dioxoisoindolin-4-yl)-2,7-diazaspiro[3.5]nonan-2-yl)piperidin-1-yl)-3-methoxybenzamide], for which the “Activity: ratio” value at PLK1 is on record as “++ (++<0.6)”. The IC50 with NCI-H526 cell line is under 30 nM; with MRC-5 cell line, over 10 µM.
Regarding `COc1cc(C(=O)N[C@H]2CC[C@H](OC3CCN(c4cccc5c4C(=O)N(C4CCC(=O)NC4=O)C5=O)CC3)CC2)c(F)cc1Nc1ncc2c(n1)N(C1CCCC1)CC(F)(F)C(=O)N2C` (stereo partly drawn) [Compound 115, 4-((9-cyclopentyl-7,7-difluoro-5-methyl-6-oxo-6,7,8,9-tetrahydro-5H-pyrimido[4,5-b][1,4]diazepin-2-yl)amino)-N-((1r,4r)-4-((1-(2-(2,6-dioxopiperidin-3-yl)-1,3-dioxoisoindolin-4-yl)piperidin-4-yl)oxy)cyclohexyl)-2-fluoro-5-methoxybenzamide], the “Activity: ratio” value on PLK1 is reported as “++ (++<0.6)”. Moreover, the IC50 in the assay with NCI-H526 cell line was under 400 nM; in the assay on MRC-5 cell line it was over 10 µM.
Take `COc1cc(C(=O)N2CCN(CCCN3CCN(c4ccc5c(c4)C(=O)N(C4CCC(=O)NC4=O)C5=O)CC3)CC2)ccc1Nc1ncc2c(n1)N(C1CCCC1)CC(F)(F)C(=O)N2C` (stereo not drawn) [Compound 90, 5-(4-(3-(4-(4-((9-cyclopentyl-7,7-difluoro-5-methyl-6-oxo-6,7,8,9-tetrahydro-5H-pyrimido[4,5-b][1,4]diazepin-2-yl)amino)-3-methoxybenzoyl)piperazin-1-yl)propyl)piperazin-1-yl)-2-(2,6-dioxopiperidin-3-yl)isoindoline-1,3-dione]: the “Activity: ratio” value on PLK1 is listed as “++ (++<0.6)”. The IC50 is under 400 nM in the assay with NCI-H526 cell line and over 10 µM in the assay with MRC-5 cell line.
